# According to patent US10981926B2 (Janssen Pharmaceutica NV, priority 2016, dated 2021):
# Tests used:
# Type in all cases: cell-based
# [1] = biological target: T1, wild-type Androgen Receptor (AR-wt) (Homo sapiens (Human), UniProt P10275); assay: LNCaP-AR-wt AG reporter assay (agonist mode); settings: for EC50: agonist mode, pEC50 = −Log10(EC50 in Molar), read-out: LNCaP-AR-wt AG pEC50 (converted); for Emax: maximum % stimulation (agonist response) over the tested concentration range, read-out: LNCaP-AR-wt AG MAX % Stim
# [2] = biological target: T2, F876L mutant Androgen Receptor (AR-F876L) (Homo sapiens (Human), UniProt P10275, F877L); assay: LNCaP-AR-F876L AG reporter assay (agonist mode); settings: for EC50: agonist mode, pEC50 = −Log10(EC50 in Molar), read-out: LNCaP-AR-F876L AG pEC50 (converted); for Emax: read-out: LNCaP-AR-F876L AG MAX % Stim
# [3] = biological target: T2, F876L mutant Androgen Receptor (AR-F876L); assay: LNCaP-AR-F876L ANT reporter assay (antagonist mode); settings: for IC50: read-out: LNCaP-AR-F876L ANT pIC50 (converted); for Emax: maximum % inhibition of R1881 control response over the tested concentration range, read-out: LNCaP-AR-F876L ANT MAX % Inh
# [4] = biological target: T1, wild-type Androgen Receptor (AR-wt); assay: LNCaP-AR-wt ANT reporter assay (antagonist mode); settings: for IC50: read-out: LNCaP-AR-wt ANT pIC50 (converted); for Emax: maximum % inhibition of R1881 control response over the tested concentration range, read-out: LNCaP-AR-wt ANT MAX % Inh
# [5] = maximum % stimulation (agonist response) over the tested concentration range
# [6] = antagonist mode, pIC50 = −Log10(IC50 in Molar)
# T2 sequence (P10275 whole entry F877L): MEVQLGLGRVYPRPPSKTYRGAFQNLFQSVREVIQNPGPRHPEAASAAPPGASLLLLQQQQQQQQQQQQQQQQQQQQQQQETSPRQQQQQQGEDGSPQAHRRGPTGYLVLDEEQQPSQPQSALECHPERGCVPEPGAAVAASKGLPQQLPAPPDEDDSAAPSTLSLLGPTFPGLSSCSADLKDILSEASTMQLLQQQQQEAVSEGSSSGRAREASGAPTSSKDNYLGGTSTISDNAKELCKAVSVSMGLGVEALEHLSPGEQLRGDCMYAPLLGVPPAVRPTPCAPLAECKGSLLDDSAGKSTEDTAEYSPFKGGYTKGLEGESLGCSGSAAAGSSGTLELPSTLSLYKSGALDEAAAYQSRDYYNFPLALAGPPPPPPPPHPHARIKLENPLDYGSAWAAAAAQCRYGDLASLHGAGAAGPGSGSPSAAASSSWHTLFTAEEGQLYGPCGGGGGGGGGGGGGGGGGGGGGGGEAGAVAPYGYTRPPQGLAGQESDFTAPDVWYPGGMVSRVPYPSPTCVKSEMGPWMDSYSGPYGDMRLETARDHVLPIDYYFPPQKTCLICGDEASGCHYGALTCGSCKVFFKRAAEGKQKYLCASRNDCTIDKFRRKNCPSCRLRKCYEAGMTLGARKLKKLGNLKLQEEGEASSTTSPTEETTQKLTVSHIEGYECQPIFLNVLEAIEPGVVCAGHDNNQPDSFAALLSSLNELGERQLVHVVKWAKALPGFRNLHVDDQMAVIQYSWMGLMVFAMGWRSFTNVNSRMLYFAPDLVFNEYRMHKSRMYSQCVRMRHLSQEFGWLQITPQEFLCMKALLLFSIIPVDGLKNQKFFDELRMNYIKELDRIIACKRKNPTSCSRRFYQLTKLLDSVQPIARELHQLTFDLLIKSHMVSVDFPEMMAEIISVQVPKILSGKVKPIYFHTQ
# T1 sequence (P10275 whole entry): as the sequence (P10275 whole entry F877L) above, with L877F counted along it
EC50 [1],Emax [1],EC50 [2],"Emax [2, 5]","IC50 [3, 6]",Emax [3],"IC50 [4, 6]",Emax [4],"LNCaP-AR-F876L AG MAX % Stim [2, 5]","LNCaP-AR-F876L ANT pIC50 [3, 6]","LNCaP-AR-wt ANT pIC50 [4, 6]",Structure (SMILES)
> 15100 nM,0.1%,> 15100 nM,0.5%,575 nM,98.4%,1200 nM,94.2%,,,,"Cc1cc(N2C(=O)C3(CCC3)N(c3ccc(N4CCNC4=O)cc3)C2=S)cnc1C#N [Cpd 9, 3-Methyl-5-{5-oxo-8-[4-(2-oxoimidazolidinyl)phenyl]-7-thioxo-6,8-diazaspiro[3.4]oct-6-yl}pyridine-2-carbonitrile]"
> 15100 nM,0.5%,> 15100 nM,0.9%,275 nM,100%,339 nM,102%,,,,"CCNC(=O)n1cc(-c2ccc(N3C(=S)N(c4cnc(C#N)c(C)c4)C(=O)C34CCC4)cc2)cn1 [Cpd 10, (4-{4-[7-(6-cyano-5-methyl(3-pyridyl))-8-oxo-6-thioxo-5,7-diazaspiro[3.4]oct-5-yl]phenyl}pyrazolyl)-N-ethylcarboxamide]"
> 15100 nM,0.5%,> 15100 nM,0.7%,117 nM,98.5%,661 nM,101%,,,,"N#Cc1ncc(N2C(=O)C3(CCC3)N(c3ccc(OC4CCSCC4)cc3)C2=S)cc1C(F)(F)F [Cpd 12, 5-[5-oxo-8-(4-thian-4-yloxyphenyl)-7-thioxo-6,8-diazaspiro[3.4]oct-6-yl]-3-(trifluoromethyl)pyridine-2-carbonitrile]"
> 15100 nM,0.5%,> 15100 nM,1%,363 nM,98.1%,537 nM,101%,,,,"N#Cc1ncc(N2C(=O)C3(CCC3)N(c3ccc(OC4CCS(=O)(=O)CC4)cc3)C2=S)cc1C(F)(F)F [Cpd 13, 5-{8-[4-(1,1-dioxothian-4-yloxy)phenyl]-5-oxo-7-thioxo-6,8-diazaspiro[3.4]oct-6-yl}-3-(trifluoromethyl)pyridine-2-carbonitrile]"
> 15100 nM,0.4%,> 15100 nM,0.2%,234 nM,98.4%,562 nM,97.1%,,,,"N#Cc1ncc(N2C(=O)C3(CCC3)N(c3ccc(OC4CCN(CCCF)CC4)cc3)C2=S)cc1C(F)(F)F [Cpd 14, 5-(5-(4-((1-(3-fluoropropyl)piperidin-4-yl)oxy)phenyl)-8-oxo-6-thioxo-5,7-diazaspiro[3.4]octan-7-yl)-3-(trifluoromethyl)picolinonitrile]"
> 15100 nM,-0.1%,> 15100 nM,1.1%,191 nM,100%,240 nM,101%,,,,"COc1ccc(N2C(=S)N(c3cnc(C#N)c(C(F)(F)F)c3)C(=O)C23CCC3)cn1 [Cpd 15, 5-[8-(6-methoxy-3-pyridyl)-5-oxo-7-thioxo-6,8-diazaspiro[3.4]octan-6-yl]-3-(trifluoromethyl)pyridine-2-carbonitrile]"
> 15100 nM,0.5%,> 15100 nM,0.8%,363 nM,97.5%,1120 nM,98.8%,,,,"CN1CC[C@@H](Oc2ccc(N3C(=S)N(c4cnc(C#N)c(C(F)(F)F)c4)C(=O)C34CCC4)cc2)C1 [Cpd 16, 5-[8-[4-[(3R)-1-methylpyrrolidin-3-yl]oxyphenyl]-5-oxo-7-thioxo-6,8-diazaspiro[3.4]octan-6-yl]-3-(trifluoromethyl)pyridine-2-carbonitrile]"
> 15100 nM,0.3%,> 15100 nM,,457 nM,100%,1510 nM,98.5%,0.1%,,,"N#Cc1ncc(N2C(=O)C3(CCC3)N(c3ccc(OC4CCCNCC4)cc3)C2=S)cc1C(F)(F)F (stereo not shown) [Cpd 17, 5-[8-(4-azaperhydroepin-4-yloxyphenyl)-5-oxo-7-thioxo-6,8-diazaspiro[3.4]oct-6-yl]-3-(trifluoromethyl)pyridine-2-carbonitrile]"
> 15100 nM,0%,> 15100 nM,0%,,99%,,93.5%,,6.00,5.65,"N#Cc1ncc(N2C(=O)C3(CCC3)N(c3ccc(O)nc3)C2=S)cc1C(F)(F)F [Cpd 18, 5-[8-(6-hydroxy-3-pyridyl)-5-oxo-7-thioxo-6,8-diazaspiro[3.4]octan-6-yl]-3-(trifluoromethyl)pyridine-2-carbonitrile]"
> 15100 nM,0.3%,> 15100 nM,1.6%,200 nM,101%,661 nM,101%,,,,"CN1CCCC(Oc2ccc(N3C(=S)N(c4cnc(C#N)c(C(F)(F)F)c4)C(=O)C34CCC4)cc2)CC1 (stereo not shown) [Cpd 19, 5-{8-[4-(1-methylazaperhydroepin-4-yloxy)phenyl]-5-oxo-7-thioxo-6,8-diazaspiro[3.4]oct-6-yl}-3-(trifluoromethyl)pyridine-2-carbonitrile]"
> 15100 nM,0.2%,> 15100 nM,-0.5%,513 nM,97.7%,1820 nM,93.2%,,,,"CN1CCC[C@H](Oc2ccc(N3C(=S)N(c4cnc(C#N)c(C(F)(F)F)c4)C(=O)C34CCC4)cc2)C1 [Cpd 20, 5-{8-[4-((3S)-1-methyl(3-piperidyloxy))phenyl]-5-oxo-7-thioxo-6,8-diazaspiro[3.4]oct-6-yl}-3-(trifluoromethyl)pyridine-2-carbonitrile]"
> 15100 nM,-0.1%,> 15100 nM,0.3%,309 nM,69.9%,501 nM,80.6%,,,,"Cc1cc(N2C(=O)C3(CCC3)N(c3ccc(OC4CCSCC4)nc3)C2=S)cnc1C#N [Cpd 21, 3-methyl-5-[5-oxo-8-(6-thian-4-yloxy(3-pyridyl))-7-thioxo-6,8-diazaspiro[3.4]oct-6-yl]pyridine-2-carbonitrile]"
> 15100 nM,0%,> 15100 nM,0.2%,,100%,,101%,,,,COc1cc(N2C(=O)C3(CCC3)N(c3ccc(OC4CCN(C)CC4)nc3)C2=S)cnc1C#N [Cpd 25]
> 15100 nM,0%,> 15100 nM,-0.1%,107 nM,101%,219 nM,101%,,,,"Cc1cc(N2C(=O)C3(CCC3)N(c3ccc(OCCCN(C)C)nc3)C2=S)cnc1C#N [Cpd 27, 5-[8-[6-[3-(dimethylamino)propoxy]-3-pyridyl]-5-oxo-7-thioxo-6,8-diazaspiro[3.4]octan-6-yl]-3-methyl-pyridine-2-carbonitrile]"
> 15100 nM,0.4%,> 15100 nM,-0.1%,1120 nM,74.1%,2140 nM,64.9%,,,,"CC(C)(C)OC(=O)N1CCN(C(=O)c2ccc(N3C(=S)N(c4cnc(C#N)c(C(F)(F)F)c4)C(=O)C34CCC4)cc2)CC1 [Cpd 32, tert-butyl 4-[4-[6-[6-cyano-5-(trifluoromethyl)-3-pyridyl]-5-oxo-7-thioxo-6,8-diazaspiro[3.4]octan-8-yl]benzoyl]piperazine-1-carboxylate]"
> 15100 nM,-0.3%,> 15100 nM,0%,1260 nM,99.2%,3020 nM,92.9%,,,,"N#Cc1ncc(N2C(=O)C3(CCC3)N(c3ccc(O)nc3)C2=S)cc1Cl [Cpd 45, 3-chloro-5-[8-(6-hydroxy-3-pyridyl)-5-oxo-7-thioxo-6,8-diazaspiro[3.4]octan-6-yl]pyridine-2-carbonitrile]"
> 15100 nM,1.1%,> 15100 nM,0.3%,110 nM,97.6%,219 nM,101%,,,,"CC(C)(C)OC(=O)N1CCC(CNC(=O)c2ccc(N3C(=S)N(c4cnc(C#N)c(C(F)(F)F)c4)C(=O)C34CCC4)cc2)CC1 [Cpd 46, tert-butyl 4-[[[4-[6-[6-cyano-5-(trifluoromethyl)-3-pyridyl]-5-oxo-7-thioxo-6,8-diazaspiro[3.4]octan-8-yl]benzoyl]amino]methyl]piperidine-1-carboxylate]"

Structure (SMILES),EC50 [1],Emax [1],EC50 [2],"Emax [2, 5]","IC50 [3, 6]",Emax [3],"IC50 [4, 6]",Emax [4],"LNCaP-AR-F876L AG MAX % Stim [2, 5]","LNCaP-AR-F876L ANT pIC50 [3, 6]","LNCaP-AR-wt ANT pIC50 [4, 6]"
CN1CCC(Oc2ccc(N3C(=S)N(c4cnc(C#N)c(Cl)c4)C(=O)C34CCC4)cn2)CC1 [Cpd 26],> 15100 nM,0.4%,> 15100 nM,0.5%,69.2 nM,100%,55 nM,101%,,,
